Read-outs that look alike come from different tables or passages of the source.
How the values were obtained:
[1] = test system: Oct-4- and Nanog-overexpressed A549 clone (A3); assay: MTT cytotoxicity assay, A3 cells; format: cell-based; settings: Homo sapiens, 48 h of drug exposure
Method: (§1) Non-small cell lung cancer cells A549 and Oct-4- and Nanog-overexpressed A549 clone (clone #3; A3), presented the properties of cancer stem-like cells, as well as epithelial-mesenchymal transdifferentiation, according to our previous study. They were grown in the same conditions as RPMI 1640 media supplemented with 10% fetal bovine serum (FBS), 100 units/mL penicillin, […] streptomycin, 1 mM sodium pyruvate, 2 mM l-glutamine and 1% non-essential amino acid (NEAA) in a humidified atmosphere with 5% CO2 at 37°C. Normal fibroblast cells HEL299 from American Type Culture Collection (ATCC) were grown in MEM media supplemented with 10% FBS, 100 units/mL penicillin, […] streptomycin, 1 mM sodium pyruvate, 2 mM l-glutamine and 1% NEAA, in a humidified atmosphere with 5% CO2 at 37°C.
(§2) The tetrazolium reagent (MTT; 3-(4,5-dimethylthiazol-2-yl)-2,5-diphenyl-tetrazolium bromide, USB) was designed to yield a colored formazan upon metabolic reduction by viable cells, [61]. Approximately 5×10^4 cells were plated onto each well of a 24-well plate and incubated in 5% CO2 at 37°C for 24 hours. To assess the in vitro cytotoxicity, each compound was dissolved in DMSO and prepared immediately before the experiments and then was diluted into the complete medium before being added to cell cultures. Test compounds were then added to the culture medium in various designated concentrations. After 48 hours, an amount of 100 µl of MTT was added to each well, and the samples were incubated at 37°C for 2 h. 100 µl DMSO was added to each well. The absorbency at 560 nm and reference absorbency at 670 nm were measured using an ELISA reader.

A549 cells = assay: MTT cytotoxicity assay, A549 cells; format: cell-based; settings: Homo sapiens, 48 h of drug exposure
Method: as §1, §2

HEL299 cells = assay: MTT cytotoxicity assay, HEL299 normal fibroblasts; format: cell-based; settings: Homo sapiens, HEL 299, 48 h of drug exposure
Method: as §1, §2

PARP-1 = target: T1, PARP-1 (Homo sapiens, UniProt P09874); assay: PARP inhibitory assay (histone-coated plate, colorimetric); format: biochemical
T1 construct: purchased
Method: We used histone-coated 96-well plate treated with seven putative PARP-1 inhibitors or well-known PARP-1 inhibitors (3-AB), and then added PARP enzyme to each well. PARP enzyme catalyzes the NAD-dependent addition of poly (ADP-ribose) to histone, and diluted Strp-HRP could bind to PARylation histone. TACS-Sapphire™ yielded blue under the HRP existence. In order to systematically evaluate the potential anticancer activity, the compounds were tested for their cytotoxicity in vitro against 60 human cancer lines in the NCI anticancer drug screen as well as for dose response curves and telomerase activity. Cell growth was analyzed by the MTT assay, with differences between dose-response curves analyzed non-parametrically. Telomerase activity was detected by a modified version of the PCR-based assay and TRAP assay. […] However, PARP inhibitory effects had no difference at 1 and 10 µM. As described above, NSC746364, NSC746366 and NSC749232 show dose-dependency only at low concentrations. […] NSC747854 had dose-dependent PARP inhibitory manners at three different concentrations, and reached the maximum inhibitory effect of 86% at 10 µM (Table 4). […] In this investigation, we continued to focus our attention on the role of NSC747854 and to understand the basis of pharmacophore selectivity. Of particular note is the significant difference with these selected compounds, compared with that of 3-AB and PJ-34. […] An electron-rich aromatic ring system, including a carboxamide group, should have at least a hydrogen atom on the amide nitrogen. The amidinium moiety is known to contribute to the stabilization of DNA recognition element through electrostatic and hydrogen bonding interactions. Therefore, hydrogen bonds are frequently used as recognition elements due to their directionality and also due to being attractive factors to the biological activity (Figure 1). Many classes of drugs have substantial curvature, high DNA affinity, binding to the minor-groove or major-groove, interference with DNA-associated enzymes (e.g. telomerase), and Poly (ADP-ribose) polymerase, PARP. […] This approach greatly expands the utility of the substituents and related pharmacophore for the construction of drugs in general. Therefore, it is desirable to design PARP inhibitors in accordance with various anticancer parameters. It was first reported that anthraquinone analogues are potent human PARP inhibitors.
Strip wells were removed from the wrapper and 50 µl of 1X PARP Buffer was added to each well to rehydrate the histones. They were incubated at room temperature for 30 minutes. The 1X PARP buffer was removed from the wells by tapping the strip wells on paper towels. The serial dilutions of inhibitor of interest were added to appropriate wells. The diluted PARP enzyme (0.5 unit/well) was then added to the wells containing inhibitor. They were incubated for 10 minutes at room temperature. The PARP Enzyme-High Specific Activity (PARP-HAS) standard was serially diluted in cold micro-tubes with 1X PARP buffer such that the total activity was 1 unit/25 µl, 0.5 units/25 µl, 0.25 units/25 µl, 0.1 units/25 µl, 0.05 units/25 µl, 0.025 units/25 µl, and 0.01 units/25 µl, respectively. The 25 µl of each standard was added to triplicate wells. The 25 µl of 1X PARP cocktail were distributed into each well by using a multichannel pipettor. The final reaction volume is 50 µl. They were incubated along with the strip wells at room temperature for 60 minutes. The strip wells were washed 2 times with 1X PBS +0.1% Triton X-100 (200 µl/well) followed by 2 washes with 1X PBS. All the liquid was removed following each wash by tapping strip wells onto paper towels. The 50 µl diluted Strep-HRP were added per well. They were incubated at room temperature for 60 minutes. The strip wells were washed 2 times with 1X PBS +0.1% Triton X-100 (200 µl/well) followed by 2 washes with 1X PBS. All the liquid was removed following each wash by tapping strip wells onto paper towels. […]

A549/ATCC = assay: NCI-60 drug screen (SRB), NSCLC line A549/ATCC; format: cell-based, human
Method: (§3) As a primary screening, seven selected compounds were submitted to the National Cancer Institute (NCI) cell lines screen for evaluation of their anticancer activity. From the data analysis, it follows that approximately 95% of the actives from the 60 cell lines screen can be identified. The detailed methods used for the 60 cell lines panel have been described elsewhere [54]–[59]. Briefly, cellular protein levels were determined after 48 hours of drug exposure by SRB colorimetry. Through the use of a time zero cell control, the cell growth can be determined for each cell line thus allowing calculations of GI50, TGI, and LC50. Comparison to plates not exposed to drug permits determination of concentration and times of exposure conferring GI50, TGI, and LC50. […] By these criteria, seven compounds reported from our compounds bank were all active and passed on for evaluation in the full panel of 60 human tumor cell lines. The panel is organized into nine subpanels representing diverse histology: leukemia, melanoma, and cancers of the lung, colon, kidney, ovary, breast, prostate, and central nervous system.

EKVX = assay: NCI-60 drug screen (SRB), NSCLC line EKVX; format: cell-based, human
Method: as §3

HOP-62 = assay: NCI-60 drug screen (SRB), NSCLC line HOP-62; format: cell-based, human
Method: as §3

NCI-H226 = assay: NCI-60 drug screen (SRB), NSCLC line NCI-H226; format: cell-based, human
Method: as §3

NCI-H23 = assay: NCI-60 drug screen (SRB), NSCLC line NCI-H23; format: cell-based, human
Method: as §3

NCI-H322M = assay: NCI-60 drug screen (SRB), NSCLC line NCI-H322M; format: cell-based, human
Method: as §3

NCI-H460 = assay: NCI-60 drug screen (SRB), NSCLC line NCI-H460; format: cell-based, human
Method: as §3

NCI-H522 = assay: NCI-60 drug screen (SRB), NSCLC line NCI-H522; format: cell-based, human
Method: as §3

[2] = Homo sapiens, 48 hours drug exposure, SRB
[3] = Homo sapiens, 48 hours drug exposure, SRB, read-out: GI50
[4] = Homo sapiens, NCI in vitro 60-cell lines Drug Screen, read-out: -Log GI50 (converted)
[5] = Homo sapiens, 48 hours drug exposure, SRB, read-out: LC50 (the source's name)

T1 sequence (P09874 whole entry): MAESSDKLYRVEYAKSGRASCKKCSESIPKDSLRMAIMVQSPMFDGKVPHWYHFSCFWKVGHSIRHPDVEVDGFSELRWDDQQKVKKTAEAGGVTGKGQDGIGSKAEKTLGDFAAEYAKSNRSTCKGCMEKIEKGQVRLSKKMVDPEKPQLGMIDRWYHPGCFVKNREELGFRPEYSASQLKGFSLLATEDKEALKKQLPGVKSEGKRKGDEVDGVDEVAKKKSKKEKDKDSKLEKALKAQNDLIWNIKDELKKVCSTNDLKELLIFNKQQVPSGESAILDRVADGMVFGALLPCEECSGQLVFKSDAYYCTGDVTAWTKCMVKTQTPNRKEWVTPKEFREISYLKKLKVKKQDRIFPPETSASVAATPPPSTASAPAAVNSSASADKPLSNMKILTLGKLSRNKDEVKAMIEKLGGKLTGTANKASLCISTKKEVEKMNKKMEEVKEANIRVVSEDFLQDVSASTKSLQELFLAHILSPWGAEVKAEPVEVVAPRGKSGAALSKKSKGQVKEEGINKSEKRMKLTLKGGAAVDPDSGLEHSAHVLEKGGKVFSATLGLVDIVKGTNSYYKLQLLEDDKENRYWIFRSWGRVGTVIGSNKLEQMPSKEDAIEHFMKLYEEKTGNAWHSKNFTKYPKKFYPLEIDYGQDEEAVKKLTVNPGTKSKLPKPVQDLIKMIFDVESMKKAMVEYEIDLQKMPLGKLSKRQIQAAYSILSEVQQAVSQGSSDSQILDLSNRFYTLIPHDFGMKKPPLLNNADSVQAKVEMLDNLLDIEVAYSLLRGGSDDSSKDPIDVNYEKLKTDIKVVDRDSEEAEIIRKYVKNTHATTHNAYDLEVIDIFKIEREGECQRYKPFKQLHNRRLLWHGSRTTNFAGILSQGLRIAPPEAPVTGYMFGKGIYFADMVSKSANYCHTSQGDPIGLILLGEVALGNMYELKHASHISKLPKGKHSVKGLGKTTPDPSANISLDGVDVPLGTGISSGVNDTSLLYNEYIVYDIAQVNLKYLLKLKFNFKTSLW

Structure (SMILES): NC(=O)c1cccc(N)c1 [3-AB, 3-Aminobenzamide, reference compound]
- IC50 [1]: 10.8 µM
- IC50 (A549 cells): 13.1 µM
- IC50 (HEL299 cells): 5.98 µM
- inhibition at 0.1 µM (PARP-1): 4%
- inhibition at 1 µM (PARP-1): 10%
- inhibition at 10 µM (PARP-1): 18%

Structure (SMILES): O=C1c2ccccc2C(=O)c2c1ccc1nc(SCCN3CCCC3)[nH]c21 [NSC747515]
- TGI (A549/ATCC; 48 hours drug exposure, SRB): 15.0 µM
- LC50 (concentration killing 50% of cells) (A549/ATCC; [2]): 41.8 µM
- GI50 (A549/ATCC; [3]): 3.8 µM
- GI50 (A549/ATCC; [4]): 3.8 µM
- TGI (EKVX; 48 hours drug exposure, SRB): 26.5 µM
- LC50 (EKVX; [2]): 62.4 µM
- GI50 (EKVX; [3]): 11.2 µM
- GI50 (EKVX; [4]): 11.2 µM
- TGI (HOP-62; 48 hours drug exposure, SRB): 33.2 µM
- GI50 (HOP-62; [3]): 18 µM
- CC50 (HOP-62; [5]): 61.2 µM
- GI50 (HOP-62; [4]): 18.2 µM
- TGI (NCI-H226; 48 hours drug exposure, SRB): 36.6 µM
- GI50 (NCI-H226; [3]): 19.3 µM
- CC50 (NCI-H226; [5]): 69.7 µM
- GI50 (NCI-H226; [4]): 19.5 µM
- TGI (NCI-H23; 48 hours drug exposure, SRB): 25.7 µM
- GI50 (NCI-H23; [3]): 11.6 µM
- CC50 (NCI-H23; [5]): 56.9 µM
- GI50 (NCI-H23; [4]): 11.5 µM
- TGI (NCI-H322M; 48 hours drug exposure, SRB): 21.4 µM
- LC50 (NCI-H322M; [2]): 47.3 µM
- GI50 (NCI-H322M; [3]): 8.21 µM
- GI50 (NCI-H322M; [4]): 8.13 µM
- TGI (NCI-H460; 48 hours drug exposure, SRB): 4.77 µM
- LC50 (concentration killing 50% of cells) (NCI-H460; [2]): 29.3 µM
- GI50 (NCI-H460; [3]): 1.68 µM
- GI50 (NCI-H460; [4]): 1.7 µM
- TGI (NCI-H522; 48 hours drug exposure, SRB): 32.5 µM
- GI50 (NCI-H522; [3]): 15.9 µM
- CC50 (NCI-H522; [5]): 66.2 µM
- GI50 (NCI-H522; [4]): 15.8 µM
- IC50 [1]: 7.05 µM
- IC50 (A549 cells): 11.8 µM
- IC50 (HEL299 cells): 25.9 µM
- inhibition at 0.1 µM (PARP-1): 20%
- inhibition at 1 µM (PARP-1): 22%
- inhibition at 10 µM (PARP-1): 24%

Structure (SMILES): CN(C)CC(=O)Nc1ccc2[nH]c(=O)c3ccccc3c2c1 [PJ-34, reference compound]
- IC50 [1]: 9.44 µM
- IC50 (A549 cells): 31.7 µM
- IC50 (HEL299 cells): 14.7 µM
